These results are taken from PubChem BioAssay (NCI).

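Cultured in 96-well plates, cells were exposed to test compound for 48 hours across five concentrations. Abbreviation: GI50, concentration required for 50% inhibition of growth. TGI marks complete inhibition of growth.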

Among the test systems are SW-620 colon; BT-549 breast; RPMI-8226 leukemia; HCT-116 colon; ACHN renal; SK-MEL-28 melanoma; M14 melanoma; OVCAR-5 ovarian; TK-10 renal; SF-539 CNS.
Common to all, as to assay: inhibition of tumour cell growth, NCI panel, 48 h

In the case of `CCSc1ccc([C@@H]2[C@@H](N)C(=O)N2c2cc(OC)c(OC)c(OC)c2)cc1`, the GI50 is 0.0476 µM in the experiment with SW-620 colon; 0.0592 µM in the experiment on BT-549 breast; 0.0862 µM in the experiment on RPMI-8226 leukemia; 0.0448 µM in the experiment with HCT-116 colon; 0.071 µM with ACHN renal; 3.79 µM in the experiment with SK-MEL-28 melanoma. For the same compound, the GI50 is 0.0456 µM with M14 melanoma, 0.892 µM with OVCAR-5 ovarian and 30.6 µM in the experiment on TK-10 renal. For the same compound, the TGI in the experiment on SW-620 colon was over 100 µM; with BT-549 breast, over 100 µM; in the experiment with RPMI-8226 leukemia it was 46.9 µM; with HCT-116 colon it was over 100 µM; in the experiment with ACHN renal, over 100 µM; with SK-MEL-28 melanoma it was over 100 µM. The TGI in the experiment with M14 melanoma, in the experiment on OVCAR-5 ovarian and in the experiment with TK-10 renal was over 100 µM throughout.
As for `O=C(Nc1ccc(Oc2ccc(NC(=O)Nc3ccc([N+](=O)[O-])cc3)cc2)cc1)Nc1ccc([N+](=O)[O-])cc1`, the GI50 is 2.51 µM with SW-620 colon; 2.06 µM in the experiment with BT-549 breast; 0.303 µM with RPMI-8226 leukemia; 1.17 µM in the experiment on HCT-116 colon; 3.07 µM with SF-539 CNS; 1.92 µM in the experiment on ACHN renal. The GI50 was 3.28 µM in the experiment with SK-MEL-28 melanoma, 2.37 µM in the experiment with M14 melanoma, 3.59 µM in the experiment with OVCAR-5 ovarian and 2.11 µM with TK-10 renal. Also, the TGI in the experiment with SW-620 colon is over 56.3 µM; in the experiment on BT-549 breast, 7.36 µM; with RPMI-8226 leukemia, 1.84 µM; in the experiment on HCT-116 colon, 9.19 µM; in the experiment on SF-539 CNS it was 20.6 µM; with ACHN renal it was over 52.6 µM. The TGI in the experiment with SK-MEL-28 melanoma was 43.2 µM; in the experiment on M14 melanoma, 11.7 µM; in the experiment on OVCAR-5 ovarian, over 100 µM; in the experiment with TK-10 renal it was over 26.7 µM.
Regarding `O=C(O)c1cn(C2CC2)c2cc(N3CCNCC3)c(F)cc2c1=O`, the GI50 with SW-620 colon, in the experiment with BT-549 breast, in the experiment on RPMI-8226 leukemia, in the experiment with HCT-116 colon, in the experiment with ACHN renal and in the experiment with SK-MEL-28 melanoma was over 100 µM each time. Besides, the GI50 in the experiment with M14 melanoma, in the experiment with OVCAR-5 ovarian and in the experiment on TK-10 renal was over 100 µM each time. Moreover, the TGI in the experiment on SW-620 colon, in the experiment with BT-549 breast, in the experiment on RPMI-8226 leukemia, in the experiment on HCT-116 colon, in the experiment with ACHN renal and in the experiment with SK-MEL-28 melanoma was over 100 µM in each case. Also, the TGI with M14 melanoma, in the experiment with OVCAR-5 ovarian and in the experiment with TK-10 renal was over 100 µM each time.
`O=C(Oc1ccccc1Cl)c1ccccc1Nc1cccc(C(F)(F)F)c1`: the GI50 in the experiment on SW-620 colon was 8.07 µM; in the experiment on BT-549 breast, 18.3 µM; with RPMI-8226 leukemia, 18.4 µM; in the experiment with HCT-116 colon, 14.7 µM; in the experiment on SF-539 CNS, 22.1 µM; with ACHN renal it was 40.3 µM. Moreover, the GI50 in the experiment with SK-MEL-28 melanoma was 38.5 µM; in the experiment on M14 melanoma, 13.9 µM; with OVCAR-5 ovarian, 30.6 µM; with TK-10 renal, 32.7 µM. For the same compound, the TGI was 54.4 µM in the experiment on SW-620 colon; 52.6 µM in the experiment on BT-549 breast; 54.2 µM in the experiment on RPMI-8226 leukemia; 40.9 µM in the experiment with HCT-116 colon; 42.2 µM with SF-539 CNS; over 100 µM in the experiment with ACHN renal. Also, the TGI with SK-MEL-28 melanoma is over 100 µM; in the experiment on M14 melanoma it was 38.9 µM; with OVCAR-5 ovarian it was 94.7 µM; with TK-10 renal, 67.9 µM.
`CCCCCCCCCCCCCCCC(=O)OCC1OC(OC)C(NC(=O)N(CCCl)N=O)C(O)C1O` (centres undefined): the TGI in the experiment with SW-620 colon was 28.5 µM; in the experiment with BT-549 breast, 99.4 µM; in the experiment with RPMI-8226 leukemia it was 61.6 µM; with HCT-116 colon it was 26.8 µM; in the experiment on SF-539 CNS, 15.3 µM; with ACHN renal, 57.2 µM. Also, the TGI was over 85.4 µM with SK-MEL-28 melanoma, 36.4 µM in the experiment on M14 melanoma, over 74 µM in the experiment on OVCAR-5 ovarian and 63.2 µM in the experiment on TK-10 renal.
On to `COc1ccc(/C=C\c2cc(OC)c(OC)c(OC)c2)cc1OCC(=O)Nc1nc2ccccc2s1`, for which the GI50 in the experiment with SW-620 colon is 0.0359 µM; with BT-549 breast, 0.303 µM; with RPMI-8226 leukemia, 0.683 µM; in the experiment on HCT-116 colon, 0.0439 µM; with SF-539 CNS it was 0.187 µM; with ACHN renal it was 0.107 µM. Besides, the results for the GI50 with M14 melanoma and in the experiment on OVCAR-5 ovarian were 0.0527 µM and 31.9 µM, respectively. The TGI with SW-620 colon, in the experiment with BT-549 breast, in the experiment on RPMI-8226 leukemia, with HCT-116 colon, in the experiment on SF-539 CNS and in the experiment on ACHN renal was over 100 µM each time. Moreover, the TGI in the experiment on M14 melanoma and with OVCAR-5 ovarian was over 100 µM in each case.
For the compound `Oc1ccc2ccccc2c1N=Nc1ccc(Cl)cc1`, the TGI in the experiment on SW-620 colon, in the experiment with BT-549 breast, in the experiment with RPMI-8226 leukemia, in the experiment with HCT-116 colon, in the experiment on ACHN renal and with SK-MEL-28 melanoma was over 100 µM each time. Further, the TGI with M14 melanoma, with OVCAR-5 ovarian and in the experiment on TK-10 renal was over 100 µM throughout.
For `COc1cnc2c(c1)C(=O)c1c-2n(CCCNCCN2CCOCC2)c(=O)c2cc([N+](=O)[O-])ccc12`, the GI50 was 0.128 µM in the experiment on SW-620 colon; 0.286 µM with BT-549 breast; 0.171 µM in the experiment on RPMI-8226 leukemia; 0.311 µM in the experiment on SF-539 CNS; 0.0365 µM with ACHN renal; 1.13 µM in the experiment on SK-MEL-28 melanoma. The results for the GI50 in the experiment on M14 melanoma, with OVCAR-5 ovarian and with TK-10 renal were 0.0689 µM, 0.448 µM and 0.73 µM, respectively. Moreover, the TGI in the experiment on SW-620 colon stood at 8.68 µM; in the experiment on BT-549 breast, 4.13 µM; in the experiment with RPMI-8226 leukemia it was 1.55 µM; in the experiment with SF-539 CNS, 1.32 µM; in the experiment on ACHN renal, 0.201 µM; in the experiment on SK-MEL-28 melanoma, 14.3 µM. The TGI in the experiment with M14 melanoma was 1.52 µM; in the experiment on OVCAR-5 ovarian, 3.87 µM; with TK-10 renal, 3.17 µM.
